Measured values from US6641797B2, “Perfluoroalkyl-containing complexes with sugar radicals, process for their production and their use” (Schering Aktiengesellschaft, priority 2000, dated 2003).

Legend:
Type in all cases: in vivo
[1] = Organ distribution (including tumor and lymph node concentration) after intravenous administration in prostate-cancer-carrying rats; details: 225 μmol total Gd/kg i.v.
From the text: Organ Distribution (Including Tumor and Lymph Node Concentration) After Intravenous Administration of the Contrast Medium According to the Invention of Example 1 in Prostate-cancer-carrying Rats
After intravenous administration of 225 μmol of total gadolinium/kg of body weight of the title compound of Example 1 in rats (Cop-inbreeding Dunning R3327 MAT-Lu prostate cancer i.m.-implanted 12 days earlier), the metal content in various organs, in tumors and in lymph nodes (pooled as mesenteral and peripheral lymph nodes) was determined 10 minutes, 1 and 24 hours after administration (MW±SD, n=3).

[2] = test system: VX2-tumor-carrying rabbits; experiment: Lymph node visualization (MRT) after intravenous administration in VX2-tumor-carrying rabbits; details: 200 μmol of Gd/kg i.v.
From the text: Lymph Node Visualization (MRT) After Intravenous Administration of the Contrast Medium According to the Invention of Example 1 in VX2-tumor-carrying Rabbits

[3] = test system: rats with acute induced myocardial infarction; experiment: Infarction visualization (MRT) after intravenous administration in rats with acute induced myocardial infarction; details: 100 μmol of Gd/kg i.v.; 24 hours; T1-weighted spin-echo, 1.5 T; confirmed by NBT staining
Description: Infarction Visualization (MRT) After Intravenous Administration of the Contrast Medium According to the Invention of Example 1 in Rats
MR images were prepared of the heart (in vivo and post mortem) 24 hours after intravenous administration of 100 μmol of Gd/kg of body weight of the title compound of Example 1 in rats with acute induced myocardial infarction. […] The successful indication of an acute myocardial infarction was confirmed using NBT staining.

[4] = Muscle (only tissue sample from right lower leg muscle), 1 h p.i.
[5] = Muscle (only tissue sample from right lower leg muscle), 24 h p.i.
[6] = Remainder of body (also contains the remainder of the blood), 24 h p.i.
[7] = mes. LK (pooled mesenteral lymph nodes), 10 min p.i.
[8] = mes. LK (pooled mesenteral lymph nodes), 1 h p.i.
[9] = mes. LK (pooled mesenteral lymph nodes), 24 h p.i.
[10] = periph. LK (pooled peripheral lymph nodes), 10 min p.i.
[11] = periph. LK (pooled peripheral lymph nodes), 1 h p.i.
[12] = periph. LK (pooled peripheral lymph nodes), 24 h p.i.

## CC(C(=O)NCC(=O)NCCCC[C@H](NC(=O)CO[C@H]1O[C@H](CO)[C@@H](O)[C@H](O)[C@@H]1O)C(=O)N1CCN(S(=O)(=O)C(F)(F)C(F)(F)C(F)(F)C(F)(F)C(F)(F)C(F)(F)C(F)(F)C(F)(F)F)CC1)N1CCN(CC(=O)[O-])CCN(CC(=O)[O-])CCN(CC(=O)[O-])CC1.[Gd+3] (stereo partly drawn) [Example 1]
[1]; [4]
  % Dose per Total Tissue: 0.09 ± 0.03 % Dose
  Gd-Concentration: 78 ± 1 µmol/L
[1]; [5]
  % Dose per Total Tissue: 0.04 ± 0.00 % Dose
  Gd-Concentration: 36 ± 1 µmol/L
[1]; Pancreas, 10 min p.i.
  % Dose per Total Tissue: 0.26 ± 0.05 % Dose
  Gd-Concentration: 229 ± 27 µmol/L
[1]; Pancreas, 1 h p.i.
  % Dose per Total Tissue: 0.21 ± 0.05 % Dose
  Gd-Concentration: 199 ± 30 µmol/L
[1]; Pancreas, 24 h p.i.
  % Dose per Total Tissue: 0.17 ± 0.02 % Dose
  Gd-Concentration: 130 ± 13 µmol/L
[1]; [6]
  % Dose per Total Tissue: 30.83 ± 4.05 % Dose
  Gd-Concentration: 225 ± 31 µmol/L
[1]; Spleen, 10 min p.i.
  % Dose per Total Tissue: 0.39 ± 0.03 % Dose
  Gd-Concentration: 548 ± 22 µmol/L
[1]; Spleen, 1 h p.i.
  % Dose per Total Tissue: 0.39 ± 0.02 % Dose
  Gd-Concentration: 487 ± 25 µmol/L
[1]; Spleen, 24 h p.i.
  % Dose per Total Tissue: 0.57 ± 0.03 % Dose
  Gd-Concentration: 645 ± 27 µmol/L
[1]; Stomach (emptied), 10 min p.i.
  % Dose per Total Tissue: 0.57 ± 0.04 % Dose
  Gd-Concentration: 231 ± 10 µmol/L
[1]; Stomach (emptied), 1 h p.i.
  % Dose per Total Tissue: 0.54 ± 0.12 % Dose
  Gd-Concentration: 219 ± 46 µmol/L
[1]; Stomach (emptied), 24 h p.i.
  % Dose per Total Tissue: 0.37 ± 0.06 % Dose
  Gd-Concentration: 138 ± 9 µmol/L
[1]; Sum of Organs (less the remainder of the body), 10 min p.i.
  % Dose per Total Tissue, Sum of Organs: 60.47 ± 3.68 % Dose
[1]; Sum of Organs (less the remainder of the body), 1 h p.i.
  % Dose per Total Tissue, Sum of Organs: 36.33 ± 2.51 % Dose
[1]; Sum of Organs, 24 h p.i.
  % Dose per Total Tissue, Sum of Organs: 52.01 ± 5.22 % Dose
[1]; Tumor, 10 min p.i.
  % Dose per Total Tissue: 0.28 ± 0.10 % Dose
  Gd-Concentration: 185 ± 36 µmol/L
[1]; Tumor, 1 h p.i.
  % Dose per Total Tissue: 0.21 ± 0.02 % Dose
  Gd-Concentration: 184 ± 13 µmol/L
[1]; Tumor, 24 h p.i.
  % Dose per Total Tissue: 0.31 ± 0.01 % Dose
  Gd-Concentration: 199 ± 19 µmol/L
[1]; Urine 0-24 h
  % Dose per Total Tissue: 20.20 ± 4.41 % Dose
  Gd-Concentration: 94 ± 20 µmol/L
[1]; [7]
  % Dose per Total Tissue: 0.11 ± 0.04 % Dose
  Gd-Concentration: 359 ± 72 µmol/L
[1]; [8]
  % Dose per Total Tissue: 0.24 ± 0.02 % Dose
  Gd-Concentration: 697 ± 42 µmol/L
[1]; [9]
  % Dose per Total Tissue: 0.32 ± 0.04 % Dose
  Gd-Concentration: 854 ± 135 µmol/L
[1]; [10]
  % Dose per Total Tissue: 0.10 ± 0.01 % Dose
  Gd-Concentration: 229 ± 15 µmol/L
[1]; [11]
  % Dose per Total Tissue: 0.20 ± 0.03 % Dose
  Gd-Concentration: 436 ± 44 µmol/L
[1]; [12]
  % Dose per Total Tissue: 0.18 ± 0.01 % Dose
  Gd-Concentration: 373 ± 24 µmol/L
[2]; 24 hours after administration
  MR signal in lymph node metastasis: considerable signal rise
  MR signal rise in healthy lymph node tissue: reduced
[2]; 24 hours p.i.
  MR enhancement of the primary tumor: enhancement also propagates out from the center of the tumor
[2]; early after administration, confirmed histologically
  MR signal in lymph node metastasis: without a signal rise
[2]; iliac lymph nodes, T1-weighted gradient-echo, 1.5 T, early after administration
  MR signal in healthy lymph node tissue: strong signal rise
[2]; immediately after administration, especially the periphery
  MR enhancement of the primary tumor: considerable enhancement
[3]
  MR signal in the infarction area: strong signal rise
